Assay results as given in article PMC9714824, “Hexapeptides from mammalian inhibitory hormone hunt activate and inactivate nematode reproduction” (PLOS ONE, 2022).

Key:
[1] = system: MCF 7 human breast cancer cells; conditions: in words; EPL120 over 72h, dose range 0.04 nM– 4 μM; cited from earlier work
rat bone marrow cells = test: Bone marrow cell assay, time-lapse cell counts over 24h; assay type: cell-based; conditions: EPL001, EPL030 at 6μM, EPL120 at 5μM final concentration, in words (Fig 6)
Procedure: The method has been described previously at length. Bone marrow cells, consisting of various cell types including mesenchymal stem cells and fibroblasts, were cultured from adult male rats (Rattus norvegicus, SD strain). These cells were passaged from a growing primary stock in a T75 tissue culture flask (Sarstedt) into a 48 well tissue culture plate (IWAKI), with a cell density of 1 x 10^5/ml. The cell culture media, henceforth referred to as ‘supplemented a-MEMS,’ comprised α-MEMS media supplemented with 10% FCS and 1% penicillin/streptomycin (all Life Technologies, Carlsbad, CA, US). On the day of peptide addition to the cells, the supplemented α-MEMS was gently removed and fresh supplemented α-MEMS added, with 10% test material by volume to achieve micromolar concentrations, untreated controls receiving just fresh supplemented α-MEMS. (For dose levels see legends in respective result figures) All samples were filter sterilised using a Millex-GV […] syringe filter unit (Merck, Kenilworth, NJ, USA). The cells were imaged for 24 h using an incubated Zeiss Axiovert 135M microscope with a Prior Proscan II motorised stage, at 37 °C with a 5% CO2 in air feed. Each well of the 48-well tissue culture plate was then imaged for 24h every 5 min using Metamorph software (MDS Analytical Technologies, Wokingham, UK), with each well having four fields of view. The viability and cell numbers were reviewed by analysing the images captured over the 24h period and cell counts were taken at selected time points using the Metamorph software.
Fig 6 Bone marrow cells in culture exposed to long peptides. Cells were counted over 24h after exposure to the 14mer peptide EPL001 or its scrambled-sequence control EPL030 at 6μM final concentration or to the 20mer EPL120 at 5μM final concentration, compared to peptide-untreated controls.
Fig 7 Bone marrow cells in culture exposed to hexapeptides. Cells were counted over 24h after exposure to either EPL016 (= MKPLTG, the ‘Front 6’ of the 14mer EPL001) or EPL036 (= IEPVFT, the ‘Back 6’ of EPL030, the scrambled-sequence control of EPL001) at 1μM final concentration, compared to peptide-untreated controls.

mouse renal cell = conditions: in words; cited from earlier work
human dental pulp cells = conditions: 5μM (single starting dose) in the cell medium; over 7 days; cited from earlier work
Excerpt: EPL001 is a found sequence, as described in the Introduction. As a 14mer synthetic peptide it has been represented elsewhere as a minimized ball and stick model in silico [9]. […] An anti-EPL001 antibody administered alone potentiated compensatory renal grow ...

DU145 cells = test: MTS viable cell assay, DU145 (Epistem); assay type: cell-based, human; conditions: DU145, 72h
Procedure: (§1) Further assays on human prostate cancer cells were conducted at a contract research organisation (Epistem, Manchester, UK). LNCaP or DU145 cells seeded at 3,000 cells/well across a 96-well plate were cultured in RPMI (phenol red free), 10% FCS, 1% sodium pyruvate, Pen/strep and L-glutamine for 24h before exposure to peptides, at a single dose level in the case of LNCaPs or multiple dose levels in the case of DU145s. (For dose levels see Results.) Controls received vehicle (1% PBS). For the DU145s peptide administration was repeated after 24h. 72h after the first administration (DU145s) or only administration (LNCaP) total viable cell numbers were measured colorimetrically (MTS) using a CellTiter 96 AQueous One Solution Cell Proliferation Assay (Promega, Southampton, UK), following manufacturer’s instructions. Briefly, the media on the plates was replaced with the CellTiter reagent diluted 1:5 in DMEM. The plates were returned to the incubator for 3 hours before reading absorbance at 492 nm on a FLUORstar OPTIMA (BMG Labtech). CellTiter data are the absorbance minus background values (CellTiter plus DMEM), expressed as (OD mean +/− SEM). Statistical analysis was by ANOVA, Dunnett’s multiple comparisons test.

PC3 cells = test: MTS colorimetric viable cell assay, PC3; assay type: cell-based, human; conditions: PC3; 30 μM; 27h; MTS, 492 nm; triplicate
Procedure: (§2) Assays involving a range of peptides from 14mer down to 6mers assessed total viable PC3 or PNT2 cells using a 96-well plate MTS colorimetric assay (CellTiter 96 Aqueous One Solution Cell Proliferation Assay, Promega, Southampton, UK), with absorbance measured at 492 nm. Cells were seeded at 8,000 per well and grown for 27h. Peptides were administered at the outset to a final concentration of 30 μM (in 2 μl) to samples in triplicate. (A higher dosage was used than in the 14mer peptides study to shorten the timecourse of response.) Controls received buffer. Data are OD mean +/ − SEM, with statistical analysis by two tailed t-test. A time course study of the 14mers on PC3s, using the same technique, involved measurements at 24h and 48h.
(§3) Fig 5 Effects of a range of peptides on human prostate cancer cell growth in vitro. Assays involved a range of peptides from 14mers down to 6mers (Table 1), with viable cells assessed using a 96-well plate MTS colorimetric assay. Absorbance measured at 492 nm. Cells were seeded at 8,000 per well and grown for 27h. Peptides were administered at the outset to a final concentration of 30 μM (in 2 μl) to samples in triplicate. Controls received buffer. Data are OD mean +/- SEM, with statistical analysis by two tailed t-test. * p<0.05; **p<0.025.

LNCaP cells = test: MTS viable cell assay, LNCaP (Epistem); assay type: cell-based, human; conditions: over 72h, single dose level
Procedure: as §1

PNT2 cells = test: MTS colorimetric viable cell assay, PNT2; assay type: cell-based, human; conditions: 30 μM, 27h, 492 nm, triplicate
Procedure: as §2, §3

Substance | Test mean OD vs control mean (DU145 cells; 0.015 μM) | Test mean OD vs control mean (DU145 cells; 0.15 μM) [%] | Test mean OD vs control mean (DU145 cells; 1.5 μM) [%] | Test mean OD vs control mean (DU145 cells; 15 μM) [%] | Test mean OD vs control mean (DU145 cells; 150 μM (highest concentration)) [%] | Difference in percentage terms between control and test OD means (PC3 cells) [%] | Reduction in test mean OD versus the vehicle control mean (LNCaP cells) [%] | Difference in percentage terms between control and test OD means (PNT2 cells) [%] | further results
EPL120: EPL001 Edman sequence tentatively extended 6 further reads, to make a 20mer (MKPLTGKVKEFNNIKGFGVI) | – | – | – | – | – | – | – | – | Inhibition of IGF-1 stimulated growth in MCF-7 cell numbers [1]: dose-dependent inhibition; Effect on bone marrow cells in culture (rat bone marrow cells): pro-apoptotic
KGNEVMKLFPTINE [EPL010, Scrambled control (Haylor et al, 2009)] | – | – | – | – | – | – | – | – | Activity in a mouse renal cell assay in vitro (mouse renal cell): inactive
KVKEFNNI [EPL018, KVKEFNNI, EPL001 Back 8] | – | – | – | – | – | – | – | – | Reduction in cell numbers (human dental pulp cells): ~ 17%
MKPNFN [EPL600] | +8.6% | −0.1 | −8.4 | −7.1 | −16.9 | −27.3 | −35.1 | −39.7 | –
MKPVFN [EPL601] | +6.9% | −4.3 | −10.4 | −11.4 | −14.3 | −28.0 | −16.0 | −33.2 | –
